Calls of active or inactive are those of the source. No cut-off for these calls is given here.
Assays:
[1] = Tmax in Sprague-Dawley rat at 100 mg/kg, ig measured for 24 hrs by LC-MS analysis; assay type: ADME, organism-based; settings: in vivo, po
RAW264.7 [2] = assay: Anti-inflammatory activity against mouse RAW264.7 cells assessed as decrease in LPS-induced IL-6 secretion measured after 24 hrs by ELISA; assay type: functional, cell-based; settings: dose 5-20 µM
[3] = target: Signal transducer and activator of transcription 3 (Homo sapiens) (UniProt P40763); assay: Inhibition of STAT3 in human MGC-803 cells assessed as decrease in STAT3 phosphorylation at 4 to 16 uM measured after 48 hrs by western blot assay; assay type: cell-based; settings: dose 4-16 µM
Signal transducer and activator of transcription 3 (Homo sapiens), sequence (P40763 whole entry): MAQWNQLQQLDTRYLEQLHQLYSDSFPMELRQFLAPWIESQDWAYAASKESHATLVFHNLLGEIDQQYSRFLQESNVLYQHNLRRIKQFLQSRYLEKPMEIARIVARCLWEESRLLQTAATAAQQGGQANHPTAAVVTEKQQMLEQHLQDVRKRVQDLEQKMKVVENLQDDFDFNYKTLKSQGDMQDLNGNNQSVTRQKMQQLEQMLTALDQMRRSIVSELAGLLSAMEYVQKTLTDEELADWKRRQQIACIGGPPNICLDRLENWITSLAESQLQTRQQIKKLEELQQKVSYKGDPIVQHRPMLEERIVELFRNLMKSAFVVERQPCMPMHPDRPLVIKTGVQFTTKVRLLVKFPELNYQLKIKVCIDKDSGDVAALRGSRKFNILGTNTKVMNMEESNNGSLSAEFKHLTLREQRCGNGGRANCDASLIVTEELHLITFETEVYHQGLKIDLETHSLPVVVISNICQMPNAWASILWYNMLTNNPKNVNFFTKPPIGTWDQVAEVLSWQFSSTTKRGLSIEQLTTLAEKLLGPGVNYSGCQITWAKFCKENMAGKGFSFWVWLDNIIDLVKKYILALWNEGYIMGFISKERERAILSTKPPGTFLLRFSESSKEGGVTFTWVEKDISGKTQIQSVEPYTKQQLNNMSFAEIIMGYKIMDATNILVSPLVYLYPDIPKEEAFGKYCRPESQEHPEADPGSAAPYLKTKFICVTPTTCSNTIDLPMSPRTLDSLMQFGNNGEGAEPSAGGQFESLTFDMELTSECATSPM

MGC-803 [4] = assay: Downregulation of STAT3 expression in human MGC-803 cells at 10 uM measured after 3 hrs by Hoechst/fluorochrome-conjugated antibody staining based confocal laser microscopy; assay type: functional, cell-based
HCT-116 [5] = assay: Induction of apoptosis in human HCT-116 cells assessed as downregulation of cytochrome C expression at 2.5 to 10 uM measured after 48 hrs by western blot assay; assay type: functional, cell-based; settings: dose 2.5-10 µM
HCT-116 [6] = assay: Induction of apoptosis in human HCT-116 cells assessed as early apoptotic cells at 10 uM measured after 48 hrs by Annexin V-FITC/PI staining based flow cytometry (reference value: 2.14%); assay type: functional
HCT-116 [7] = assay: Downregulation of STAT3 protein expression in human HCT-116 cells at 2.5 to 10 uM measured after 48 hrs by western blot assay; assay type: functional, cell-based; settings: dose 2.5-10 µM
HCT-116 [8] = assay: Induction of apoptosis in human HCT-116 cells assessed as viable cells at 5 uM measured after 48 hrs by Annexin V-FITC/PI staining based flow cytometry (reference value: 94.9%); assay type: functional; settings: read-out: Activity
SGC-7901 = assay: Antiproliferative activity against human SGC-7901 cells assessed as inhibition of cell proliferation measured after 72 hrs by MTT assay; assay type: functional, cell-based; settings: SGC-7901, 72 h
MGC-803 [9] = assay: Induction of apoptosis in human MGC-803 cells at 2.5 to 20 uM measured after 48 hrs by Annexin V-FITC/PI staining based flow cytometry; assay type: functional, cell-based; settings: dose 2.5-20 µM
[10] = target: Signal transducer and activator of transcription 3 (Homo sapiens) (UniProt P40763); assay: Inhibition of STAT3 in human MGC-803 cells assessed as inhibition of nuclear translocation of STAT3 at 10 uM measured after 3 hrs by Hoechst/fluorochrome-conjugated antibody staining based confocal laser microscopy; assay type: cell-based
HCT-116 [11] = assay: Induction of apoptosis in human HCT-116 cells assessed as viable cells at 10 uM measured after 48 hrs by Annexin V-FITC/PI staining based flow cytometry (reference value: 94.9%); assay type: functional; settings: read-out: Activity
[12] = Observed AUC (0 to infinity) in Sprague-Dawley rat at 100 mg/kg, ig measured for 24 hrs by LC-MS analysis; assay type: ADME, organism-based; set-up: route intragastric, time 24 hrs, dose 100 mg/kg; settings: in vivo, po
HCT-116 [13] = assay: Induction of cell cycle arrest in human HCT116 cells assessed as accumulation of cells at G0/G1 phase at 20 uM measured after 48 hrs by propidium iodide staining based flow cytometry analysis (reference value: 70.45%); assay type: functional
AGS = assay: Antiproliferative activity against human AGS cells assessed as inhibition of cell proliferation measured after 72 hrs by MTT assay; assay type: functional, cell-based
HCT-116 [14] = assay: Downregulation of STAT3 expression in human HCT-116 cells at 10 uM measured after 3 hrs by Hoechst/fluorochrome-conjugated antibody staining based confocal laser microscopy; assay type: functional, cell-based
HCT-116 [15] = assay: Induction of apoptosis in human HCT-116 cells assessed as increase in apoptotic cells with twinkling cell nuclei at 1.25 to 10 uM measured after 48 hrs by Hoechst 33342 staining based light blue fluorescence analysis; assay type: functional; settings: dose 1.25-10 µM
[16] = AUC (0 to t) in Sprague-Dawley rat at 100 mg/kg, ig measured for 24 hrs by LC-MS analysis; assay type: ADME, organism-based; set-up: time 24 hrs, dose 100 mg/kg; settings: in vivo, po
MGC-803 [17] = assay: Antimetastatic activity against human MGC-803 cells assessed as inhibition of cell migration measured after 24 hrs by transwell assay; assay type: functional, cell-based; settings: dose 2.5-15 µM
HCT-116 [18] = assay: Induction of apoptosis in human HCT-116 cells assessed as late apoptotic cells at 5 uM measured after 48 hrs by Annexin V-FITC/PI staining based flow cytometry (reference value: 1.42%); assay type: functional
MCF7 = assay: Antiproliferative activity against human MCF7 cells assessed as inhibition of cell proliferation measured after 72 hrs by MTT assay; assay type: functional, cell-based; settings: MCF7, 72 h
[19] = Toxicity in po dosed Kunming mouse; assay type: organism-based; settings: in vivo
MGC-803 [20] = assay: Cytotoxicity against human MGC-803 cells assessed as reduction in cell viability at <=10 uM measured after 48 hrs by CCK8 assay; assay type: cell-based; settings: mgc-803, 48 h
[21] = Toxicity in Kunming mouse assessed as feeding frequency and amount at 1000 mg/kg, ig measured for 14 days; assay type: organism-based; settings: in vivo, po, 336 h, time 14 day
HCT-116 [22] = assay: Induction of apoptosis in human HCT-116 cells assessed as […] of cleaved caspase-3 expression at 2.5 to 10 uM measured after 48 hrs by western blot assay; assay type: functional, cell-based; settings: dose 2.5-10 µM
HCT-116 [23] = assay: Cytotoxicity against human HCT-116 cells assessed as reduction in cell viability at <=20 uM measured after 48 hrs by CCK8 assay; assay type: cell-based; settings: hct-116, 48 h
[24] = target: Signal transducer and activator of transcription 3 (Homo sapiens) (UniProt P40763); assay: Inhibition of STAT3 in human HCT-116 cells assessed as decrease in STAT3 phosphorylation at 2.5 to 10 uM measured after 48 hrs by western blot assay; assay type: cell-based; settings: dose 2.5-10 µM
HCT-116 [25] = assay: Induction of apoptosis in human HCT-116 cells assessed as necrotic cells at 2.5 uM measured after 48 hrs by Annexin V-FITC/PI staining based Flowcytometry assay (reference value: 1.5%); assay type: functional
RAW264.7 [26] = assay: Anti-inflammatory activity against mouse RAW264.7 cells assessed as decrease in LPS-induced TNF-alpha secretion measured after 24 hrs by ELISA; assay type: functional, cell-based; settings: dose 5-20 µM
HCT-116 [27] = assay: Induction of apoptosis in human HCT-116 cells assessed as plasmatorrhexis at 2.5 to 15 uM measured after 48 hrs by Giemsa staining method; assay type: functional, cell-based; settings: dose 2.5-15 µM
HCT-116 [28] = assay: Induction of apoptosis in human HCT-116 cells assessed as necrotic cells at 20 uM measured after 48 hrs by Annexin V-FITC/PI staining based flow cytometry (reference value: 1.5%); assay type: functional
MGC-803 [29] = assay: Antiproliferative activity against human MGC-803 cells assessed as decrease in cell population at S-phase at 2 to 16 uM measured after 24 hrs by EdU incorporation based fluorescence microscopic analysis; assay type: functional; settings: dose 2-16 µM
HCT-116 [30] = assay: Induction of apoptosis in human HCT-116 cells assessed as late apoptotic cells at 20 uM measured after 48 hrs by Annexin V-FITC/PI staining based flow cytometry (reference value: 1.42%); assay type: functional
[31] = Toxicity in Kunming mouse assessed as hair condition at 1000 mg/kg, ig measured for 14 days; assay type: organism-based; settings: in vivo, po, 336 h, time 14 day
[32] = Toxicity in Kunming mouse assessed as animal survival at 1000 mg/kg, ig measured for 14 days; assay type: organism-based; settings: in vivo, po, 336 h, time 14 day
A549 = assay: Antiproliferative activity against human A549 cells assessed as inhibition of cell proliferation measured after 72 hrs by MTT assay; assay type: functional, cell-based; settings: A549, 72 h
HCT-116 [33] = assay: Induction of apoptosis in human HCT-116 cells assessed as viable cells at 20 uM measured after 48 hrs by Annexin V-FITC/PI staining based flow cytometry (reference value: 94.9%); assay type: functional; settings: read-out: Activity

In the case of `Cc1c(Cl)cccc1Nc1ccccc1C(=O)NCCc1c[nH]c2ccccc12`, the Tmax [1] is reported as 1 h, the Activity (RAW264.7 [2]) is reported as “Dose-Dependent Effect” and the inhibition [3] is reported as “Active”. The inhibition (MGC-803 [4]) was “Active”, the Activity (HCT-116 [5]) was “Active” and the Activity (HCT-116 [6]) was 33%. The inhibition (HCT-116 [7]) was “Active”, the viability at 5 µM (HCT-116 [8]) was 87.8% and the IC50 (SGC-7901) was 15.5 µM. For the same compound, the Activity (MGC-803 [9]) was “inactive”, the inhibition [10] was “Active” and the viability at 10 µM (HCT-116 [11]) was 58.5%. It also gave an AUC(0-inf) [12] of 1930 ng·h/mL, an Activity (HCT-116 [13]) of 84.74% and an IC50 (AGS) of 9.12 µM. The inhibition (HCT-116 [14]) was “Active”, the Activity (HCT-116 [15]) was “Active” and the AUC(0-t) at 24 h [16] was 1670 ng·h/mL. The Activity (MGC-803 [17]) was “Dose-Dependent Effect”, the Activity (HCT-116 [18]) was 3.94% and the IC50 (MCF7) was 12.8 µM. The LD50 [19] was > 1000 mg/kg, the Activity (MGC-803 [20]) was “Non-Toxic” and the Activity [21] was “Non-Toxic”. For the same compound, the Activity (HCT-116 [22]) was “Active”, the Activity (HCT-116 [23]) was “Non-Toxic” and the inhibition [24] was “Active”. The Activity (HCT-116 [25]) was 2.07%, the Activity (RAW264.7 [26]) was “Dose-Dependent Effect” and the Activity (HCT-116 [27]) was “Active”. The Activity (HCT-116 [28]) was 2.62%, the Activity (MGC-803 [29]) was “Active” and the Activity (HCT-116 [30]) was 8.95%. For the same compound, the Activity [31] was “Non-Toxic”, the Activity [32] was “Non-Toxic” and the IC50 (A549) was 18.6 µM. It also gave a viability at 20 µM (HCT-116 [33]) of 45.9%.

Reference: ChEMBL document CHEMBL4818998, “Melatonin derivatives combat with inflammation-related cancer by targeting the Main Culprit STAT3” (Eur J Med Chem, 2021)
